These results are taken from patent US20040258676A1, “Stimulation of the activity of an isoform of lysyl oxidase for combating against some pathologies due to an incomplete, absent or disorganized elastogenesis” (COLETICA, priority 2003, published 2004).

One test concerns elastin (Eln) mRNA. Kind of test: Screening of actives by qualitative RT-PCR, elastin mRNA in aged adult fibroblasts (Example 9). It counts as cell-based. The following applies: actives at 1% (v/v), 24 hours, fibroblasts of normal human skin of aged adults; compared to actin and to negative control. The protocol: (§1) The actives were tested at 1% (v/v) on fibroblasts of normal human skin (originating from healthy <<aged >> adults). The culture was carried out, e.g. in a monolayer on 24-well culture plates, in a defined medium without serum (Fibroblast Basal Medium, Promocell, Germany). The cells were sown, e.g. at 40,000 per cm^2. At the confluence, the cells are placed in contact with the actives advantageously for 24 hours. In parallel, a non-treated control (medium alone) and three positive controls (TGF-β at 1 ng/ml, IL-1α at 50 pg/ml and Phytokine® (Coletica, France) at 2%(v/v)) are advantageously carried out, e.g. on the same culture plate. The TGF-β at 1 ng/ml and the IL-1α at 50 pg/ml were tested beforehand and the stimulation of the synthesis of elastin mRNA induced by these two cytokines at these concentrations was verified by an analysis of the mRNAs, e.g. by quantitative RT-PCR (×10 for TGF-β and x6 for IL-1 alpha). […] The total RNAs are extracted e.g. with the aid of an extraction kit of 96 wells on silica columns and were determined on a 96-well spectrophotometer at 260 nm (purity indicator: protein determination at 280 nm). […] The photographs of the gels were analyzed by image analysis and quantification of the intensity of the bands (Phoretix1D Quantifier, Non Linear Dynamics Ltd, USA). […]

The test system of the next test is LOX mRNA. Kind of test: Screening of actives by qualitative RT-PCR, LOX mRNA in aged adult fibroblasts (Example 9). It counts as cell-based. The following applies: actives at 1% (v/v), 24 hours, fibroblasts of normal human skin of aged adults; compared to actin and to negative control. The protocol:
as §1

The subject of the next test is elastin mRNA. Kind of test: Verification of positive controls: stimulation of the synthesis of elastin mRNA by quantitative RT-PCR. Conditions: TGF-β at 1 ng/ml. It counts as cell-based, human. The protocol:
The TGF-β at 1 ng/ml and the IL-1α at 50 pg/ml were tested beforehand and the stimulation of the synthesis of elastin mRNA induced by these two cytokines at these concentrations was verified by an analysis of the mRNAs, e.g. by quantitative RT-PCR (×10 for TGF-β and x6 for IL-1 alpha). After the time of placing the actives in contact with the cells, e.g. 24 hours, the media are removed and the cells are preserved e.g. by dry freezing at −80° C. after a rinsing in phosphate buffer pH 7.4. The total RNAs are extracted e.g. with the aid of an extraction kit of 96 wells on silica columns and were determined on a 96-well spectrophotometer at 260 nm (purity indicator: protein determination at 280 nm). […]
The actives were tested at 1% (v/v) on human scar tissue skin fibroblasts (surgical recovery of hypertropic scar after caesarean) in premature passage (lower than 5 passages). […] The TGF-β at 1 ng/ml and the IL-1α at 50 pg/ml were tested beforehand and the stimulation of the synthesis of elastin mRNA induced by these two cytokines at these concentrations was verified by an analysis of the mRNAs, e.g. by quantitative RT-PCR (x10 for TGF-β and x6 for IL-1 alpha). […] The total RNAs are extracted e.g. with the aid of an extraction kit of 96 wells on silica columns and were determined on a 96-well spectrophotometer at 260 nm (purity indicator: protein determination at 280 nm). […]

With `OC[C@@H](O)[C@H](O)[C@@H](O)CO` [Xylitol], in the test with elastin (Eln) mRNA, the “Eln Control multiplied by:” value is given as 0.27. Besides, the “LOX Control multiplied by:” value in the test on LOX mRNA was 3.10.

For the molecule TGF-β, in the test on elastin mRNA, the “stimulation of the synthesis of elastin mRNA” value is listed as 10 x.
